Test results published in patent EP2550964A1, “Temsirolimus for use in the prevention and/or treatment of a delta 9-tetrahydrocannabinol-induced anxiety disorder” (Universitat Pompeu-Fabra, priority 2011, dated 2013).

How the values were obtained:
Format in all cases: in vivo
mice [1] = assay: Object-recognition task (V-maze, discrimination index)
Procedure: Object-recognition memory was assayed in the V-maze, a black Plexiglas maze with two corridors (30 cm long x 4.5 cm wide) set in V with a 90 degrees angle, and 15 cm high walls. The test was performed as previously described (Puighermanal, E. et al., 2009. Nature Neuroscience, 12:1152-1158). Briefly, a discrimination index was calculated in the test session. All the drugs (temsirolimus or THC and their vehicles) were injected intraperitoneally after the training session. Objects to be explored in the test were made out of different materials (marble, wood or plastic) and shapes, and had been tested in previous experiments to show no preference or dislike for control mice. On the first day, mice were placed for 9 min in the V-maze for habituation. On the second day, mice were placed back in the V-maze where two objects were positioned at the end of the corridors. On the next day (test day), mice were placed in the V-maze where one of the objects was replaced by a new object. The time spent exploring the familiar object (Tf) and the novel object (Tn) were counted and the discrimination index (D.I.) was calculated as follows: D.I.= [Tn-Tf]/[Tn+Tf]. D.I. close to zero means a cognitive deficit, while D.I. close to 0.5 means a good cognitive function in this memory test.

mice [2] = assay: Antinociception, acetic acid visceral pain test (number of writhes)
Procedure: This visceral pain test was performed 120 min after THC administration. Mice received an i.p. administration of acetic acid (0.8 % solution) injected in a volume of […] of body weight. Immediately after, mice were placed in individual transparent cylinders (16 cm high, 16 cm diameter) for 20 min. The number of writhes was counted during 15 min, starting 5 min after acetic acid administration.

mice [3] = system: mice
Procedure: Elevated plus maze test. The elevated plus maze test was performed in a black Plexiglas apparatus with four arms (29 cm long x 5 cm wide) set in cross from a neutral central square (5 cm x 5 cm) elevated 40 cm above the floor. Five-min test sessions were performed 120 min after drug administration through intraperitoneal injection (temsirolimus and/or THC, and their vehicles). The percentage of time spent in the open arms was determined as a measure of anxiety-like processes. The model is based on rodents' aversion of open spaces. Anxiety reduction in the elevated plus maze test is indicated by an increase in the proportion of time spent in the open arms

Row | Compound | cognitive deficit on chronic administration (object-recognition test) (mice [1]; mouse, in vivo) | persistence of cognitive deficit after finishing the exposition to THC (mice [1]; mouse, in vivo) | amnesic effect in the object-recognition test (mice [1]; mouse, in vivo, ip) | analgesic effects (abdominal writhes) (mice [2]; mouse, in vivo) | anxiety-like effect of THC at low dose (mice [3]; mouse, in vivo) | anxiety-like effect of THC at high doses (mice [3]; mouse, in vivo, 10 mg/kg/day) | blockade of the amnesic effect of THC (mice [1]; pre-treatment with temsirolimus 1 mg/kg/day (3 mg/m^2/day), THC 10 mg/kg/day (30 mg/m^2/day), Figure 2) | prevention of the THC cognitive deficit on chronic co-administration (mice [1]; temsirolimus 1 mg/kg/day (3 mg/m^2/day) together with THC 10 mg/kg/day (30 mg/m^2/day), chronic, Figure 3B) | effects on the recognition memory (mice [1]; temsirolimus alone, 1 mg/kg/day (3 mg/m^2/day), i.p., Figure 1) | amnesic effects (object-recognition test) (mice [1]; temsirolimus alone, high doses 10, 30 and 100 mg/kg/day (30, 90 and 300 mg/m^2/day), i.p., Figure 1) | influence on the analgesic capacity of THC (mice [2]; pre-treatment with temsirolimus 1 mg/kg/day (3 mg/m^2/day) and THC 10 mg/kg/day (30 mg/m^2/day), Figure 6) | influence on the anxiolytic effect of THC (mice [3]; temsirolimus 1 mg/kg/day (3 mg/m^2/day), THC 0.3 mg/kg/day (0.9 mg/m^2/day), Figure 5) | blockade of the anxiogenic effects of THC (mice [3]; temsirolimus 1 mg/kg/day (3 mg/m^2/day), THC 10 mg/kg/day (30 mg/m^2/day), i.p., test 120 min after administration, Figure 4)
1 | CCCCCc1cc(O)c2c(c1)OC(C)(C)[C@@H]1CCC(C)=C[C@@H]21 [THC, (-)-(6aR,10aR)-6,6,9-trimethyl-3-pentyl-6a,7,8,10a-tetrahydro-6H-benzo[c]chromen-1-ol] | produces a cognitive deficit | continues showing a cognitive deficit during the following four days | always presents an amnesic effect | has analgesic effects | causes anxiolytic effects | cause anxiogenic effects |  |  |  |  |  |  | 
2 | CO[C@H]1C[C@@H]2CC[C@@H](C)[C@@](O)(O2)C(=O)C(=O)N2CCCC[C@H]2C(=O)O[C@H]([C@H](C)C[C@@H]2CC[C@@H](OC(=O)C(C)(CO)CO)[C@H](OC)C2)CC(=O)[C@H](C)/C=C(\C)[C@@H](O)[C@@H](OC)C(=O)[C@H](C)C[C@H](C)/C=C/C=C/C=C/1C [temsirolimus, (1R,2R,4S)-4-{(2R)-2-[(3S,6R,7E,9R,10R,12R,145,15E,17E,19E,215,23S,26R,27R,34aS)-9,27-dihydroxy-10,21-dimethoxy-6,8,12,14,20,26-hexamethyl-1,5,11,28,29-pentaoxo-1,4,5,6,9,10,11,12,13,14,21,22,23,24,25,26,27,28,29,31,32,33,34,34a-tetracosahydro-3H-23,27-epoxypyrido[2,1-c][1,4]oxazacyclohentriacontin-3-yl]propyl}-2-methoxycyclohexyl 3-hydroxy-2-(hydroxymethyl)-2-methylpropanoate] |  |  |  |  |  |  | blocks the amnesic effect | prevented the appearance of the THC cognitive deficit | does not have effects on the recognition memory | shows amnesic effects | does not affect the analgesic capacity of THC | does not avoid the anxiolytic effect | blocks the anxiogenic effects
